SMILES strings stand for the structures.

For orientation: IC50 means the concentration needed to halve the response being measured.

In assay [1] the target is T1, EGFR (L858R T790 M C797S) (Homo sapiens, UniProt P00533, C797S/L858R/T790M).
T1 construct: purchased SignalChem E10-122VG
Description: Biochemical EGFR inhibition assay (Caliper mobility shift), LRTMCS mutant at 1 mM ATP. As to conditions: read-out: LRTMCS (PH) IC50 (nM) @ 1 mM ATP (Num). As for the experimental part: Inhibitory effects of the compounds of the disclosure were measured in biochemical assays that measure the phosphorylation activity of EGFR enzyme phosphorylates 2.5 micromolar 5-FAM-[…]-CONH2 peptide substrate (FL-Peptide 22, PerkinElmer, 760366) in the presence of adenosine-5′-triphosphate (ATP) and varying concentrations of the test compound in 100 mM 2-[4-(2-hydroxyethyl)piperazin-1-yl]ethanesulfonic acid (HEPES), pH 7.5, 10 mM MgCl2, 0.015% Brij-35, 1 mM dithiothreitol (DTT), 1.0% dimethylsulfoxide (DMSO). Assays were performed at 1.0 mM ATP or at ATP Km of the EGFR enzymes. Reactions proceeded until between 10% to 20% total peptides were phosphorylated at room temperature (25° C.) and were terminated with 35 mM 2,2′,2″,2′″-(ethane-1,2-diyldinitrilo)tetraacetic acid (EDTA). Product was detected using the Caliper mobility shift detection method where the phosphorylated peptide (product) and substrate were electrophoretically separated and measured. Percent activity was plotted against log concentration of compound and points to generate an apparent IC50. The following enzyme forms of EGFR were examples that were used in these assays: • EGFR WT (SignalChem, E10-112G) • EGFR (L858R T790 M C797S) (SignalChem, E10-122VG) • EGFR (d746-750) T790 M C797S (SignalChem, E10-122UG) • EGFR L858R (SignalChem, E10-122BG) • EGFR (d746-750) (SignalChem, E10-122JG)

Assay [2] concerns phosphorylation of EGFR in NCI-H1975 cell line that harbors the EGFR L858R T790 M mutations. As to the kind of experiment: NCI-H1975 pEGFR AlphaLISA assay. Format: cell-based. To be noted: Homo sapiens, NCI-H1975, NCI-H1975 cells, p-EGFR (Tyr1068), 4-5 hours incubation; read-out: Ext pEGFR H1975 GMean IC50 (nM) Protocol: @ Pharmaron AlphaLISA (Num). As for the experimental part: Inhibitory effects of the compounds of the disclosure were evaluated in cellular assays that measure level of intracellular phosphorylation of EGFR in NCI-H1975 cell line that harbors the EGFR L858R T790 M mutations (ATCC, CRL-5908) using AlphaLISA sureFire ultra p-EGFR (Tyr1068) assay kit (PerkinElmer, ALSU-PEGFR-A50K). The NCI-H1975 cells were seeded at 12.5K/well in 22 μL into 384 well opti plate (PerkinElmer, 6007299) and adhering overnight at 37° C./5% CO2. On the next day, the test compounds and DMSO control were added into H1975 cell plate followed by incubation at 37° C./5% CO2 for 4-5 hours. The cells were then spin down in the 384-well plate and lysed with 10 μL of 1× AlphaLISA lysis buffer followed by shaking at 600 rpm for 10 minutes at room temperature. After that, 5 μL of an acceptor bead mix was added to each well followed by incubation at room temperature for 1.5-2 h in dark. Then 5 μL of a donor bead mix was added to each well followed by overnight incubation at room temperature in dark. On the next day, the plate was read at a compatible plate reader to obtain pEGFR signal. Percent of pEGFR inhibition was plotted against log concentration of compounds to generate IC50 values.

T1 sequence (P00533 25-1210 T790M/C797S/L858R): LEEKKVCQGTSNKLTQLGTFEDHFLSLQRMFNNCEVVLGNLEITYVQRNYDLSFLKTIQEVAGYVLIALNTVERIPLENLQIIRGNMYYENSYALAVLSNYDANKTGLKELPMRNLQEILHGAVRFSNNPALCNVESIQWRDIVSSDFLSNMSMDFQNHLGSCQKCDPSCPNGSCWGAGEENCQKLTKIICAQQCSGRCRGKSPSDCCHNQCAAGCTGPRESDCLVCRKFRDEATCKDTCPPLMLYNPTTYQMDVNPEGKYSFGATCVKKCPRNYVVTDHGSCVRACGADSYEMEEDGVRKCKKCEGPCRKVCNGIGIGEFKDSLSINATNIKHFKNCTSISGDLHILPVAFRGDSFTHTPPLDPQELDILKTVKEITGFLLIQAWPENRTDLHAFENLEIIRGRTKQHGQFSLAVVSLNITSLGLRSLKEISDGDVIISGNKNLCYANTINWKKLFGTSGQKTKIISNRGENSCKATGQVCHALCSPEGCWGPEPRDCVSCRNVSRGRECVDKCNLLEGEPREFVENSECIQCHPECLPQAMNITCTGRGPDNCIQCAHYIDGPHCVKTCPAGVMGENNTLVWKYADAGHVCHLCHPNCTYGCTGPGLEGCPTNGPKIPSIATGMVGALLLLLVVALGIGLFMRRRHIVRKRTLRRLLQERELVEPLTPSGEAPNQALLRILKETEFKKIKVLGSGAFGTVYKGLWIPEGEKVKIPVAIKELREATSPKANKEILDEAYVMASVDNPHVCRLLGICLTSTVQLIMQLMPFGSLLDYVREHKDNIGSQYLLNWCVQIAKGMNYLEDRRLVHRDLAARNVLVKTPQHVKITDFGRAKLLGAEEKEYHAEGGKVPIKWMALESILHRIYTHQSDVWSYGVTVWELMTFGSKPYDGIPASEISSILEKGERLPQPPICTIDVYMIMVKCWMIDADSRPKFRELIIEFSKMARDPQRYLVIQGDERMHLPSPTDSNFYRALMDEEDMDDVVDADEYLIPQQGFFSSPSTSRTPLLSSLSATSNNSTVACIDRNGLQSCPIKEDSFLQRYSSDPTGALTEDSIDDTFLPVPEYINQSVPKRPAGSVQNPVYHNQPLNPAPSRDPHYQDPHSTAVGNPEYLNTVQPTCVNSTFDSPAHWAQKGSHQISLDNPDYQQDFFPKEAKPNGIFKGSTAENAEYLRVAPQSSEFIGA

On to `Cc1ncc(-c2nccc(Nc3cc4c(C(C)C)cnc(N5CC(CS(C)(=O)=O)C5)c4cn3)n2)s1` [Example 1, 5-isopropyl-8-(3-((methylsulfonyl)methyl)azetidin-1-yl)-N-(2-(2-methylthiazol-5-yl)pyrimidin-4-yl)-2,7-naphthyridin-3-amine], for which the concentration for half-maximal inhibition (IC50) is not above 15 nM in assay [1] and 10 to 20 nM in assay [2].
As to `CC(C)c1cnc(N2CC(CS(C)(=O)=O)C2)c2cnc(Nc3ccnc(C4CCC4)n3)cc12` [Example 5, N-(2-cyclobutylpyrimidin-4-yl)-5-isopropyl-8-(3-((methylsulfonyl)methyl)azetidin-1-yl)-2,7-naphthyridin-3-amine], the IC50 was 30 to 100 nM in assay [1] and more than 50 nM in assay [2].
Turning to `CC(C)c1cnc(N2CC(CS(C)(=O)=O)C2)c2cnc(Nc3ccnc(-c4cnn(C)c4)n3)cc12` [Example 2, 5-isopropyl-N-(2-(1-methyl-1H-pyrazol-4-yl)pyrimidin-4-yl)-8-(3-((methylsulfonyl)methyl)azetidin-1-yl)-2,7-naphthyridin-3-amine], the figures for the IC50 in assay [1] and in assay [2] were not above 15 nM and 10 to 20 nM, respectively.
As to `CC(C)c1cnc(N2CC(CS(C)(=O)=O)C2)c2cnc(Nc3ccnc([C@H]4C[C@H](O)C4)n3)cc12` [Example 7, (1r,3r)-3-(4-((5-isopropyl-8-(3-((methylsulfonyl)methyl)azetidin-1-yl)-2,7-naphthyridin-3-yl)amino)pyrimidin-2-yl)cyclobutan-1-ol], the figures for the IC50 in assay [1] and in assay [2] were 15 to 20 nM and more than 50 nM, respectively.
The matching figures for `C[C@H](CO)c1ccc(N2CC(CS(C)(=O)=O)C2)c2cnc(Nc3ccnc(-c4cnn(C)c4)n3)cc12` (single isomer, unassigned) [Example 18, (S)-2-(3-((2-(1-methyl-1H-pyrazol-4-yl)pyrimidin-4-yl)amino)-8-(3-((methylsulfonyl)methyl)azetidin-1-yl)isoquinolin-5-yl)propan-1-ol or (R)-2-(3-((2-(1-methyl-1H-pyrazol-4-yl)pyrimidin-4-yl)amino)-8-(3-((methylsulfonyl)methyl)azetidin-1-yl)isoquinolin-5-yl)propan-1-ol]: not above 15 nM and more than 50 nM.
The matching figures for `CC(C)c1cnc(N2CC(CS(C)(=O)=O)C2)c2cnc(Nc3ccnc(C45CC(CO)(C4)C5)n3)cc12` [Example 4, (3-(4-((5-isopropyl-8-(3-((methylsulfonyl)methyl)azetidin-1-yl)-2,7-naphthyridin-3-yl)amino)pyrimidin-2-yl)bicyclo[1.1.1]pentan-1-yl)methanol]: 15 to 20 nM and more than 50 nM.
As for `CC(C)c1ccc(N2CC(CS(C)(=O)=O)C2)c2cnc(Nc3ccnc(-c4cnn(C)c4)n3)cc12` [Example 10, 5-isopropyl-N-(2-(1-methyl-1H-pyrazol-4-yl)pyrimidin-4-yl)-8-(3-((methylsulfonyl)methyl)azetidin-1-yl)isoquinolin-3-amine], the 50% inhibitory concentration (IC50) is not above 15 nM in assay [1] and 10 to 20 nM in assay [2].
The matching figures for `CC(C)c1ccc(N2C[C@H](CS(C)(=O)=O)[C@H]2C)c2cnc(Nc3ccnc(-c4cccnc4)n3)cc12` (single isomer, unassigned) [Example 22, 5-isopropyl-8-((2R,3S)-2-methyl-3-((methylsulfonyl)methyl)azetidin-1-yl)-N-(2-(pyridin-3-yl)pyrimidin-4-yl)isoquinolin-3-amine or 5-isopropyl-8-((2S,3R)-2 methyl-3-((methylsulfonyl)methyl)azetidin-1-yl)-N-(2-(pyridin-3-yl)pyridin-4-yl) isoquinolin-3-amine]: not above 15 nM and less than 10 nM.
Turning to `COc1ccc(-c2nccc(Nc3cc4c(C(C)C)ccc(N5CC(CS(C)(=O)=O)C5)c4cn3)n2)cn1` [Example 11, 5-isopropyl-N-(2-(6-methoxypyridin-3-yl)pyrimidin-4-yl)-8-(3-((methylsulfonyl)methyl)azetidin-1-yl)isoquinolin-3-amine], the half-maximal inhibitory concentration (IC50) was 30 to 100 nM in assay [1] and more than 50 nM in assay [2].
As for `CC(C)c1ccc(N2CC(CS(C)(=O)=O)C2)c2cnc(Nc3ccnc([C@H]4C[C@@H]4C(F)F)n3)cc12` (single isomer, unassigned) [Example 16, N-(2-((1S,2S)-2-(difluoromethyl)cyclopropyl)pyrimidin-4-yl)-5-isopropyl-8-(3-((methylsulfonyl)methyl)azetidin-1-yl)isoquinolin-3-amine or N-(2-((1R,2R)-2-(difluoromethyl)cyclopropyl)pyrimidin-4-yl)-5-isopropyl-8-(3-((methylsulfonyl)methyl)azetidin-1-yl)isoquinolin-3-amine], the results for the IC50 in assay [1] and in assay [2] were more than 100 nM and more than 50 nM, respectively.
Take `CC(C)c1ncc(N2CC(CS(C)(=O)=O)C2)c2cnc(Nc3ccnc(-c4cnn(C)c4)n3)cc12` [Example 9, 5-isopropyl-N-(2-(1-methyl-1H-pyrazol-4-yl)pyrimidin-4-yl)-8-(3-((methylsulfonyl)methyl)azetidin-1-yl)-2,6-naphthyridin-3-amine]: the IC50 was not above 15 nM in assay [1] and 30 to 50 nM in assay [2].
The like results for `CC(C)c1cnc(N2CC(CS(C)(=O)=O)C2)c2cnc(Nc3ccnc(C4(C)CC(=O)C4)n3)cc12` [Example 3, 3-(4-((5-isopropyl-8-(3-((methylsulfonyl)methyl)azetidin-1-yl)-2,7-naphthyridin-3-yl)amino)pyrimidin-2-yl)-3-methylcyclobutan-1-one] were, in that order, more than 100 nM and more than 50 nM.
The matching figures for `CC(C)c1ccc(N2C[C@H](CS(C)(=O)=O)[C@H]2C)c2cnc(Nc3ccnc(-c4cnn(C)c4)n3)cc12` (single isomer, unassigned) [Example 23, 5-isopropyl-N-(2-(1-methyl-1H-pyrazol-4-yl)pyrmidin-4-yl)-8-((2S,3S)-2-methyl-3-((methylsulfonyl)methy)azetidin-1-yl)isoquinolin-3-amine or 5-isopropyl-N-(2-(1-methyl-1H-pyrazol-4-yl)pyrimidin-4-yl)-8-((2S,3R)-2-methyl-3-((methylsulfonyl)methyl)azetidin-1-yl)isoquinolin-3-amine]: not above 15 nM and 10 to 20 nM.
The like results for `CC(C)c1cnc(N2CC(CS(C)(=O)=O)C2)c2cnc(Nc3ccnc([C@]4(C)C[C@@H](O)C4)n3)cc12` (single isomer, unassigned) [Example 24, (1r,3r)-3-(4-((5-isopropyl-8-(3-((methylsulfonyl)methyl)azetidin-1-yl)-2,7-naphthyridin-3-yl)amino)pyrimidin-2-yl)-3-methylcyclobutan-1-ol or (1s,3s)-3-(4-((5-isopropyl-8-(3-((methylsulfonyl)methyl)azetidin-1-yl)-2,7-naphthyridin-3-yl)amino)pyrimidin-2-yl)-3-methylcyclobutan-1-ol] were, in that order, 30 to 100 nM and more than 50 nM.
Take `CC(C)c1ccc(N2CC(CS(C)(=O)=O)C2)c2cnc(Nc3ccnc(-c4cncc(Cl)c4)n3)cc12` [Example 14, N-(2-(5-chloropyridin-3-yl)pyrimidin-4-yl)-5-isopropyl-8-(3-((methylsulfonyl)methyl)azetidin-1-yl)isoquinolin-3-amine]: the results for the IC50 in assay [1] and in assay [2] were 30 to 100 nM and more than 50 nM, respectively.
`CC(C)c1cnc(N2CC(CS(C)(=O)=O)C2)c2cnc(Nc3ccnc([C@H]4C[C@@H](O)C4)n3)cc12` [Example 6, (1s,3s)-3-(4-((5-isopropyl-8-(3-((methylsulfonyl)methyl)azetidin-1-yl)-2,7-naphthyridin-3-yl)amino)pyrimidin-2-yl)cyclobutan-1-ol]: the values for the half-inhibitory concentration (IC50) in assay [1] and in assay [2] were 30 to 100 nM and more than 50 nM, respectively.

(Values after US20240300946A1, “EGFR INHIBITORS” (Blueprint Medicines Corporation, priority 2021, published 2024).)
